Entries after “also recorded” stand apart in the source; their conditions may differ.
Columns and labels:
[1] = tested on: human CD33+ myeloid, CD19+ B-lymphoid and CD34+ HSPC progeny; assay: multi-lineage reconstitution (myeloid skewing) in 1T NSG mice 24 weeks post transplantation; format: in vivo
Protocol: (§1) FIG. 2. A preclinical model for studying adult human HSC ex vivo manipulation and gene transfer and its effect on LTRP. (Panel A) Freshly isolated or thawed mobilized peripheral blood (MPB) derived CD34+ cells were utilized for the study. Two different protocols were utilized for the study where lentivirus (LV) or γ-Retrovirus (RV) mediated gene transfer was performed at indicated time points. 0 h, 18-24 h, 36-42 h, and 72-96 h indicates the total amount of time where cells were exposed in the ex vivo culture after CD34 isolation before injection into NSG mice. (Panel B) After indicated time in culture and transduction, 1 million CD34+ starting equivalent cells were transplanted per NSG mouse after TBI intravenously (primary transplant=1T). Primary human engraftment and multi-lineage reconstitution was analyzed in mice at indicated time periods after bone marrow harvest at 6 and 12 weeks (wks) from left and right femurs, and after sacrifice at 24 wks, from all bones. A portion of cells were analyzed for FACS and the rest were depleted of mouse CD45+ cells and transplanted one to one, into secondary mice (secondary transplant=2T).
Human MPB derived CD34^+ cells either fresh or thawed were cultured and transduced with lentivirus (LV) or retrovirus (RV) expressing GFP for the indicated time points. Cells were harvested and phospho-p38MAPK was detected by flow cytometry. […] Data expressed as mean±SEM from 5 independent experiments (n=12-21 mice per group). […]
Next, the multi-lineage reconstitution was analyzed at 6, 12 and 24 weeks in BM of 1T animals, both of the untransduced (GFP^−) versus transduced (GFP^+) progeny. […]

[2] = tested on: human CD45+ cell engraftment in NSG mice; assay: primary transplant (1T) of cultured hCD34+ cells into NSG mice, hCD45+ engraftment in bone marrow; format: in vivo; details: for hCD45+ cell engraftment in bone marrow of 1T mice: 24 weeks after primary transplant of cultured hCD34+ cells with/without inhibitor
Protocol: as §1
Panel A: hCD45^+ cell engraftment in bone marrow of 1T mice at 24 weeks following transplant of cultured hCD34^+ cells with/without p38 inhibitor Birb796. Panel B: Number of 2T mice engrafted (>0.01% hCD45^+ cells in BM) are shown above the middle bar and those non-engrafted below.
A xenograft model was developed to study hHSC engraftment. In the xenograft model of adult human HSC, CD34^+ cells were derived and isolated from fresh MPB. The fresh CD34^+ cells were either directly transplanted into immunocompromised NSG mice or cultured with human cytokines and then transduced either with lentivirus or retrovirus. […] The multipotential human hematopoietic progeny (hCD45^+) following huCD34^+ transplant in NSG mice were then measured to confirm that the model human HSC engraftment from adult (mobilized peripheral blood) CD34^+ HSC/P that mimics the results observed in gene therapy clinical trials. […]

## Cc1ccc(-n2nc(C(C)(C)C)cc2NC(=O)Nc2ccc(OCCN3CCOCC3)c3ccccc23)cc1 [BIRB-796, 1-[5-tert-butyl-2-(4-methylphenyl)pyrazol-3-yl]-3-[4-(2-morpholin-4-ylethoxy)naphthalen-1-yl]urea]
[1]; 1T mice 24 weeks post transplantation, listed as p38i
  myeloid skewing phenotype (overall): significantly revert this phenotype but only partially; also recorded: partially reverts
[1]; 72-96 h RV group
  myeloid lineage skewing: some improvement
[1]; HSPC transduced within the first 24 h with LV, cultures up to 72-96 h
  myeloid lineage skewing: restored to levels similar to untransduced cells or 0 h controls
[2]; 24 weeks after 1T, 72-96 h LV and RV groups
  human CD45+ cell engraftment in NSG BM, 1T: slightly improved
[2]
  hCD45+ cell engraftment in bone marrow of 1T mice: not affecting
[2]; listed as Birb796
  hCD45+ cell engraftment in bone marrow of 1T mice: significantly increases
